Results taken from PubChem BioAssay AID248 (DTP/NCI, 2004).
Values joined by “and” are separate entries in the source; they are usually repeats but may differ in a detail not shown here. Identical values can stand only once. Toxic doses and inconclusive results are not listed. No stated cut-off is given here; in the data, active means T/C of 150% or more; inactive means T/C below 125%.

System: L1210 leukemia ip in BDF1 mice, survival T/C
Assay: NCI In Vivo Anticancer Drug Screen. Data for tumor model L1210 Leukemia (intraperitoneal) in B6D2F1 (BDF1) mice
Conditions: endpoint: mean survival time, higher = longer survival
In short: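 Survival endpoint. Drug-treated group vs vehicle group, expressed as T divided by C. Tumor passaged by transplantation.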

[1] = dose: 100.0 mg/kg/injection, schedule: Q01DX009 (ip), vehicle: Klucel (hydroxypropylcellulose) (HPC)
[2] = dose: 100.0 mg/kg/injection, schedule: Q04DX003 (ip), vehicle: Klucel (hydroxypropylcellulose) (HPC)
[3] = dose: 200.0 mg/kg/injection, schedule: Q01DX009 (ip), vehicle: Klucel (hydroxypropylcellulose) (HPC)
[4] = dose: 200.0 mg/kg/injection, schedule: Q04DX003 (ip), vehicle: Klucel (hydroxypropylcellulose) (HPC)
[5] = dose: 400.0 mg/kg/injection, schedule: Q01DX009 (ip), vehicle: Klucel (hydroxypropylcellulose) (HPC)
[6] = dose: 400.0 mg/kg/injection, schedule: Q04DX003 (ip), vehicle: Klucel (hydroxypropylcellulose) (HPC)
[7] = dose: 100.0 mg/kg/injection, schedule: Q01DX001 (ip), vehicle: saline
[8] = dose: 200.0 mg/kg/injection, schedule: Q01DX001 (ip), vehicle: saline
[9] = dose: 400.0 mg/kg/injection, schedule: Q01DX001 (ip), vehicle: saline
[10] = dose: 100.0 mg/kg/injection, schedule: Q01DX009 (ip), vehicle: saline
[11] = dose: 200.0 mg/kg/injection, schedule: Q01DX009 (ip), vehicle: saline
[12] = dose: 100.0 mg/kg/injection, schedule: Q04DX003 (ip), vehicle: saline with Tween-80
[13] = dose: 200.0 mg/kg/injection, schedule: Q04DX003 (ip), vehicle: saline with Tween-80
[14] = dose: 400.0 mg/kg/injection, schedule: Q04DX003 (ip), vehicle: saline with Tween-80
[15] = dose: 50.0 mg/kg/injection, schedule: Q01DX001 (ip), vehicle: saline

Measured: T/C

Cc1cccc(C)c1NS(=O)(=O)c1ccc(Cl)cc1
inactive: [1] 107 % of control | [2] 101 % of control | [3] 88 % of control | [4] 102 % of control | [5] 95 % of control | [6] 98 % of control

CNC(C#N)Cc1ccccc1 (centres undefined)
inactive: dose: 2.5 mg/kg/injection, schedule: Q01DX009 (ip), vehicle: saline 96 % of control | dose: 5.0 mg/kg/injection, schedule: Q01DX009 (ip), vehicle: saline 98 % of control | dose: 10.0 mg/kg/injection, schedule: Q01DX009 (ip), vehicle: saline 104 % of control | dose: 20.0 mg/kg/injection, schedule: Q01DX009 (ip), vehicle: saline 101 % of control

COc1ccc(/C=C2\NC(=O)NC2=O)cc1
inactive: [7] 98 % of control | [8] 93 % of control | [9] 95 % of control

CCCCCC(OCC)(OCC)OCC
inactive: [1] 95 % of control | [2] 104 % of control | [3] 96 % of control | [4] 93 % of control | [5] 92 % of control | [6] 93 % of control

COc1ccc(N=Nc2sc(N)nc2-c2ccc(Cl)cc2)cc1
inactive: dose: 12.5 mg/kg/injection, schedule: Q01DX001 (ip), vehicle: saline with Tween-80 93 % of control | dose: 25.0 mg/kg/injection, schedule: Q01DX001 (ip), vehicle: saline with Tween-80 90 % of control | dose: 50.0 mg/kg/injection, schedule: Q01DX001 (ip), vehicle: saline with Tween-80 101 % of control

CNC1C(O)C2CCC(C2)C1c1ccccc1 (centres undefined)
inactive: dose: 75.0 mg/kg/injection, schedule: Q01DX001 (ip), vehicle: Klucel (hydroxypropylcellulose) (HPC) 96 % of control | dose: 150.0 mg/kg/injection, schedule: Q01DX001 (ip), vehicle: Klucel (hydroxypropylcellulose) (HPC) 105 % of control | dose: 300.0 mg/kg/injection, schedule: Q01DX001 (ip), vehicle: Klucel (hydroxypropylcellulose) (HPC) 98 % of control

O=C1Cc2cc3c(cc2C=C2CCCN12)OCO3
inactive: dose: 50.0 mg/kg/injection, schedule: Q01DX001 (ip), vehicle: Klucel (hydroxypropylcellulose) (HPC) 103 % of control | dose: 100.0 mg/kg/injection, schedule: Q01DX001 (ip), vehicle: Klucel (hydroxypropylcellulose) (HPC) 97 % of control | dose: 200.0 mg/kg/injection, schedule: Q01DX001 (ip), vehicle: Klucel (hydroxypropylcellulose) (HPC) 101 % of control

COc1ccccc1CN1CCCN(Cc2ccccc2OC)C1c1ccc(N(CCCl)CCCl)cc1
inactive: dose: 50.0 mg/kg/injection, schedule: Q01DX001 (ip), vehicle: carboxymethylcellulose (CMC) 115 % of control | dose: 100.0 mg/kg/injection, schedule: Q01DX001 (ip), vehicle: carboxymethylcellulose (CMC) 104 % of control | dose: 200.0 mg/kg/injection, schedule: Q01DX001 (ip), vehicle: carboxymethylcellulose (CMC) 104 % of control | dose: 400.0 mg/kg/injection, schedule: Q01DX001 (ip), vehicle: carboxymethylcellulose (CMC) 104 % of control

Cc1ccc(Br)c(Br)c1
inactive: dose: 50.0 mg/kg/injection, schedule: Q01DX009 (ip), vehicle: saline 97 % of control | [10] 87 % of control | [11] 111 % of control

O=C(O)CCOc1ccc(Cl)cc1
inactive: [12] 106 % of control | [13] 103 % of control | [14] 95 % of control

CCOC(=O)NOS(=O)(=O)c1ccc([N+](=O)[O-])cc1
inactive: [12] 100 % of control | [13] 96 % of control | [14] 98 % of control

CN=C(NC)NN
inactive: dose: 30.0 mg/kg/injection, schedule: Q01DX Z (ip), vehicle: methylcellulose (MC) 100 % of control | dose: 60.0 mg/kg/injection, schedule: Q01DX Z (ip), vehicle: methylcellulose (MC) 103 % of control | dose: 100.0 mg/kg/injection, schedule: Q04DX002 (ip), vehicle: saline with Tween-80 95 % of control | dose: 125.0 mg/kg/injection, schedule: Q01DX Z (oral), vehicle: methylcellulose (MC) 101 % of control | dose: 200.0 mg/kg/injection, schedule: Q04DX002 (ip), vehicle: saline with Tween-80 95 % of control | dose: 240.0 mg/kg/injection, schedule: Q01DX Z (ip), vehicle: methylcellulose (MC) 108 % of control | dose: 250.0 mg/kg/injection, schedule: Q01DX Z (oral), vehicle: methylcellulose (MC) 95 % of control | dose: 270.0 mg/kg/injection, schedule: Q01DX Z (ip), vehicle: saline 105 % of control | dose: 375.0 mg/kg/injection, schedule: Q01DX Z (ip), vehicle: methylcellulose (MC) 110 % of control | dose: 400.0 mg/kg/injection, schedule: Q04DX002 (ip), vehicle: saline with Tween-80 100 % of control | dose: 405.0 mg/kg/injection, schedule: Q01DX Z (ip), vehicle: saline 97 % of control | dose: 480.0 mg/kg/injection, schedule: Q01DX Z (ip), vehicle: methylcellulose (MC) 102 % of control | dose: 609.0 mg/kg/injection, schedule: Q01DX Z (ip), vehicle: saline 103 % of control

C=C(C)C1CCC2(C(=O)O)CCC3(C)C(CCC4C5(C)CCC(=O)C(C)(C)C5CCC43C)C12 (centres undefined)
inactive: [2] 102 % of control | [4] 96 % of control | [6] 94 % of control

CCOC(=O)C(C(=O)OCC)N1C(=O)c2ccccc2C1=O
inactive: [1] 100 % of control | [2] 106 % of control and 102 % of control | [3] 102 % of control | [4] 105 % of control and 104 % of control | [5] 102 % of control | [6] 101 % of control and 100 % of control

O=S(=O)(c1ccccc1)N1CN2CN(C1)CN(S(=O)(=O)c1ccccc1)C2
inactive: dose: 100.0 mg/kg/injection, schedule: Q04DX002 (ip), vehicle: Klucel (hydroxypropylcellulose) (HPC) 103 % of control | dose: 200.0 mg/kg/injection, schedule: Q04DX002 (ip), vehicle: Klucel (hydroxypropylcellulose) (HPC) 106 % of control | dose: 400.0 mg/kg/injection, schedule: Q04DX002 (ip), vehicle: Klucel (hydroxypropylcellulose) (HPC) 89 % of control

COc1ccccc1CC(=O)O
inactive: [7] 100 % of control | [12] 101 % of control | [8] 103 % of control | [13] 105 % of control | [9] 108 % of control | [14] 101 % of control

CCCCCc1nc2c(c(=O)n(C)c(=O)n2C)n1C
inactive: [15] 112 % of control | [7] 100 % of control | [8] 102 % of control | [9] 106 % of control

CC(=O)c1cccc(NC(=O)OC2CCCC(C)C2)c1 (centres undefined)
inactive: [1] 93 % of control | [3] 101 % of control | [5] 97 % of control

CC(C)(N)Cc1ccc(Cl)cc1
inactive: dose: 25.0 mg/kg/injection, schedule: Q04DX003 (ip), vehicle: saline 111 % of control | dose: 50.0 mg/kg/injection, schedule: Q04DX003 (ip), vehicle: saline 106 % of control | dose: 100.0 mg/kg/injection, schedule: Q04DX003 (ip), vehicle: saline 104 % of control | dose: 200.0 mg/kg/injection, schedule: Q04DX003 (ip), vehicle: saline 92 % of control

CCCCC(=O)N/N=C/C=C/c1ccccc1[N+](=O)[O-]
inactive: [7] 97 % of control | [8] 105 % of control | [9] 105 % of control

C[N+](C)(C)CCC[N+]1(C)CCC2(CCCC(C(F)(F)F)C2)CC1 (centres undefined)
inactive: [15] 98 % of control | [7] 104 % of control | [8] 96 % of control

CCOc1ccccc1C(N)=O
inactive: [10] 96 % of control | dose: 100.0 mg/kg/injection, schedule: Q04DX003 (ip), vehicle: other 96 % of control | [11] 107 % of control | dose: 200.0 mg/kg/injection, schedule: Q04DX003 (ip), vehicle: other 104 % of control | dose: 400.0 mg/kg/injection, schedule: Q01DX009 (ip), vehicle: saline 102 % of control | dose: 400.0 mg/kg/injection, schedule: Q04DX003 (ip), vehicle: other 105 % of control

C=CCOC(=O)C1CC(C(=O)OCC=C)C(C(=O)OCC=C)C1C(=O)OCC=C (centres undefined)
inactive: [1] 100 % of control | [2] 91 % of control | [3] 92 % of control | [4] 100 % of control | [5] 92 % of control | [6] 96 % of control

COC1OC2COc3ccccc3OC2C(NC(N)=S)C1OC (centres undefined)
inactive: dose: 100.0 mg/kg/injection, schedule: Q01DX009 (ip), vehicle: gum acacia 107 % of control | dose: 200.0 mg/kg/injection, schedule: Q01DX009 (ip), vehicle: gum acacia 102 % of control | dose: 400.0 mg/kg/injection, schedule: Q01DX009 (ip), vehicle: gum acacia 93 % of control
